System: Acanthocheilonema viteae
Experiment: Antifilarial activity against Dipetalonema viteae after 120 hrs
Format: functional, organism-based
Settings: read-out: log(1/EC50) (converted)

Row | EC50 [µM] | SMILES
1 | > 10 | O=C(Nc1ccc(C(O)c2ccccc2)cc1)c1cc([N+](=O)[O-])ccc1O (stereo not drawn)
2 | 0.028 | O=C(Nc1ccc(Nc2ccc(SC(F)(F)F)cc2)c(Cl)c1)c1cc([N+](=O)[O-])ccc1O
3 | > 10 | CCCCCCNC(=O)c1cccc(NC=O)c1O

Reference: ChEMBL document CHEMBL2046275, “Cellular quantitative structure-activity relationship (Cell-QSAR): conceptual dissection of receptor binding and intracellular disposition in antifilarial activities of Selwood antimycins” (J Med Chem, 2012)
